Tests used:
HepG2 cells = assay: TAG measurement in DNL steatosis model; format: cell-based; settings: 10 µM for 1 week; for reduction in TAG/MTT ratio: compared to the control (DMSO)
Experimental: HepG2 wild type cells were purchased from genome engineering company Synthego. Cells were maintained with growth media RPMI 1640 (R2405, Sigma-Aldrich) and supplemented with 10 % fetal bovine serum (FBS, F7524, Sigma-Aldrich), 1 % penicillin-streptomycin (P/S media, P4333, Sigma-Aldrich). Steatosis induction media was prepared as DMEM high glucose (D0819, Sigma-Aldrich) with 10% FBS, 1% P/S media supplemented with 10µg/ml insulin (I9278, Sigma-Aldrich), and 10µM T0901317 (T2320, Sigma-Aldrich) for one week. HepG2 cells were seeded 6×10^4 cells per well into a 96-well plate for TAG and MTT assay after steatosis and 1×10^6 cells per well into 6-well plate for western blot analysis after steatosis. HepG2 cells were incubated with steatosis induce media (SM) for one week by 3 day + 2 day + 2 day with total three times media exchange.
HepG2 cells were seeded at 6×10^4 cells per well into 96-well plate and induced steatosis for one week with designated concentration of small molecules (this will be referred to as a DNL steatosis model). After steatosis induction, cells were washed with 200 µl of PBS and triglyceride contents was measured by Triglyceride Assay Kit - Quantification (ab65336, Abeam) following manufacturer's instruction. Optical density (O.D) values were detected with microplate reader at 570 nm (Hidex Sense Beta Plus).
5 mg/ml MTT (M2128, Sigma-Aldrich) solution in PBS (10 µL) was added to each well for MTT assay. After 1 hr, MTT solution and all media were removed from the wells. 100 µl of DMSO was added and mixed to dissolve the formazan crystals. Cell viability was analysed by measuring the absorbance of the dissolved formazan in a microplate reader at a wavelength of 570 nm with microplate reader (Hidex Sense Beta Plus). DMSO was used as control.

[1] = molecular target: T1, pyruvate kinase liver (PKL) (Homo sapiens, UniProt P30613); assay: Pyruvate kinase activity in HepG2 PKM2 CRISPR KO protein lysate; format: biochemical; settings: for inhibition at 10 µM: read-out: reduction in PK activity of HepG2 KO protein lysate; for PK activity of HepG2 KO protein lysate (in words): batches 4 and 5
T1 construct: endogenous in cells; host or cells: HepG2 PKM2 CRISPR KO (HepG2 KO) cells; lysate in CelLytic M or treated whole cells
Experimental: (§1) HepG2 WT and HepG2 KO cells were lysed, and protein lysate was prepared with CelLytic M (C2978, Sigma-Aldrich) lysis buffer. Protein lysate was treated with 10 µM of the drugs and the pyruvate kinase activity on protein lysate was measured using Pyruvate Kinase Assay Kit (ab83432, abeam) following manufacturer's instruction. 2×10^4 HepG2 WT cells and 1×10^5 HepG2 KO cells were seeded into a 96-well plate for measuring pyruvate kinase activity in the cells. The cells were treated with 10-20µM of drugs for 4h and washed with 250µl PBS. Cells were lysed with 50 µl PK assay buffer (ab83432, abcam) and start reaction and kinetic O.D measurement was performed on 50µl PK assay buffer containing the assay component (ab83432, abcam). O.D values were measured with microplate reader (Hidex Sense Beta Plus) at 570nm wavelength. DMSO was used as control.
(§2) The effect of the target compounds was studied on liver cell line HepG2. HepG2 expresses two different pyruvate kinases (PK), pyruvate kinase muscle (PKM2) and pyruvate kinase liver (PKL). While most cells express PKM, liver cells further express PKL. […] In addition to HepG2 KO cell, HepG2 wild-type (HepG2 WT) cells were also used.

pyruvate kinase (PK) = assay: Pyruvate kinase activity in HepG2 WT protein lysate; format: biochemical; settings: 10 µM; for reduction in PK activity of HepG2 WT protein lysate: compared to the control (DMSO); for PK activity of HepG2 WT protein lysate (in words): batches 4 and 5
Experimental: as §1, §2

T1 sequence (P30613 1-543 isoform P30613-2): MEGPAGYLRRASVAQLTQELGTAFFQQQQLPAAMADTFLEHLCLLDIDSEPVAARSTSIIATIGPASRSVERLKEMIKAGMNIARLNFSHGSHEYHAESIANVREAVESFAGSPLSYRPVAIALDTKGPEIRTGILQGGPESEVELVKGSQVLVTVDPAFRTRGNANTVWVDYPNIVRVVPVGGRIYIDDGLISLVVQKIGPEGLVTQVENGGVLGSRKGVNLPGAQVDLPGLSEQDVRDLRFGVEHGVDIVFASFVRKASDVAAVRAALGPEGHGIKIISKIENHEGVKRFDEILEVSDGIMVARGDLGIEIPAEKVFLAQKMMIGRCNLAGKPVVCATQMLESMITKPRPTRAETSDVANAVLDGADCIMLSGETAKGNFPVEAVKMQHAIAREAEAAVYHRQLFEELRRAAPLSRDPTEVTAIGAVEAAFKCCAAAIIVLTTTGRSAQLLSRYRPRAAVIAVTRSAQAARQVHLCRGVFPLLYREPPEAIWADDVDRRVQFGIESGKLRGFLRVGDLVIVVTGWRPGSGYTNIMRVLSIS

SMILES	inhibition at 10 µM ([1]; compared to the control (DMSO)) [%]	reduction in PK activity of HepG2 WT protein lysate (pyruvate kinase (PK)) [%]	PK activity of HepG2 WT protein lysate (in words) (pyruvate kinase (PK))	reduction in TAG/MTT ratio (HepG2 cells) [%]	other results
COc1cc(Br)c(S(=O)(=O)NCc2cn(CC(=O)c3ccccc3)nn2)cc1OC [SET-27A, 2-bromo-4,5-dimethoxy-N-((1-(2-xox-2-phenylethyl)-1H-1,2,3-triazol-4-yl)methyl) benzenesulfonamide]	4.3	–	–	–	–
COc1cc(Br)c(S(=O)(=O)NCc2cn(Cc3ccccc3)nn2)cc1OC [SET-35A, N-((1-benzyl-1H-1,2,3-triazol-4-yl)methyl)-2-bromo-4,5-dimethoxybenzenesulfonamide]	4.4	–	–	–	–
O=S(=O)(NCc1ccccc1)c1cc(O)c(O)cc1-c1cccc(O)c1 [SET-69B, N-benzyl-3',4,5-trihydroxy-[1,1'-biphenyl]-2-sulfonamide]	–	–	reduced the PK activity	–	PK activity of HepG2 KO protein lysate (in words) ([1]; 10 µM): reduced the PK activity
O=S(=O)(NCc1ccc(F)cc1)c1cc(O)c(O)cc1-c1cccc(O)c1 [SET-68B, N-(4-fluorobenzyl)-3',4,5-trihydroxy-[1,1'-biphenyl]-2-sulfonamide]	–	–	reduced the PK activity	–	PK activity of HepG2 KO protein lysate (in words) ([1]; 10 µM): reduced the PK activity
O=S1(=O)c2cc(O)c(O)cc2-c2cc(O)ccc2N1Cc1ccc(F)cc1 [SET-68D, 6-(4-fluorobenzyl)-2,3,9-trihydroxy-6H-dibenzo[c,e][1,2]thiazine 5,5-dioxide]	–	–	highest inhibitory effect	–	–
O=S1(=O)c2cc(O)c(O)cc2-c2cc(O)ccc2N1Cc1ccccc1 [SET-69D, 6-benzyl-2,3,9-trihydroxy-6H-dibenzo[c,e][1,2]thiazine 5,5-dioxide]	–	–	reduced the PK activity	–	PK activity of HepG2 KO protein lysate (in words) ([1]; 10 µM): reduced the PK activity

Continued, in another order:

inhibition at 10 µM ([1]; compared to the control (DMSO)) [%]	reduction in PK activity of HepG2 WT protein lysate (pyruvate kinase (PK)) [%]	PK activity of HepG2 WT protein lysate (in words) (pyruvate kinase (PK))	SMILES	reduction in TAG/MTT ratio (HepG2 cells) [%]	other results
70.2	15.8	–	O=S(=O)(NCc1ccc(F)cc1)c1cc(O)c(O)cc1-c1ccc(O)c(O)c1 [SET-13, N-(4-fluorobenzyl)-3',4,4',5-tetrahydroxy-[1,1'-biphenyl]-2-sulfonamide]	21.9	–
8	–	–	COc1cc(-c2ccc(C(F)(F)F)cc2)c(S(=O)(=O)NCc2ccccc2)cc1OC [SET-26, N-benzyl-4,5-dimethoxy-4'-(trifluoromethyl)-[1,1'-biphenyl]-2-sulfonamide]	–	–
17.2	–	–	O=S(=O)(NCc1ccccc1)c1cc(O)c(O)cc1-c1ccc(C(F)(F)F)cc1 [SET-60, N-benzyl-4,5-dihydroxy-4'-(trifluoromethyl)-[1,1'-biphenyl]-2-sulfonamide]	16.3	TAG content (in words) (HepG2 cells): reduced TAG content
70.2	42.6	–	O=S1(=O)c2cc(O)c(O)cc2-c2cc(O)c(O)cc2N1Cc1ccccc1 [SET-09, 6-benzyl-2,3,8,9-tetrahydroxy-6H-dibenzo[c,e][1,2]thiazine 5,5-dioxide]	21.3	–
35.2	10.7	–	O=S(=O)(NCc1ccc(F)cc1)c1cc(O)c(O)cc1-c1ccc(C(F)(F)F)cc1 [SET-57, N-(4-fluorobenzyl)-4,5-dihydroxy-4'-(trifluoromethyl)-[1,1'-biphenyl]-2-sulfonamide]	15.6	TAG content (in words) (HepG2 cells): reduced TAG content
59.1	25.4	–	O=S(=O)(NCc1ccccc1)c1cc(O)c(O)cc1-c1ccc(O)c(O)c1 [SET-15, N-benzyl-3',4,4',5-tetrahydroxy-[1,1'-biphenyl]-2-sulfonamide]	26.8	–
–	11.7	–	COc1cc2c(cc1OC)S(=O)(=O)N(Cc1ccccc1)c1cc(C(F)(F)F)ccc1-2 [SET-61, 6-benzyl-2,2-dimethoxy-8-(trifluoromethyl)-6H-dibenzo[c,e][1,2]thiazine 5,5-dioxide]	–	reduction in PK activity of HepG2 KO protein lysate ([1]; 10 µM, compared to the control (DMSO)): 8.8%

From patent EP4585216A1, “HETEROCYCLIC COMPOUNDS FOR THE TREATMENT OF FATTY LIVER DISEASE” (ScandiEdge Therapeutics AB, priority 2024, dated 2025)
